Reference: patent US12152038B2, “Vasopressin receptor antagonists and products and methods related thereto” (Neumora Therapeutics, Inc., priority 2017, dated 2024)

Tests used:
[1] = target: T1, human Oxytocin Receptor (hOTR) (Homo sapiens, UniProt P30559); experiment: Oxytocin receptor (OTR) antagonist assay (FLIPR calcium, CHEM-1-hOTR cells); format: cell-based
T1 construct: host or cells: CHEM-1 (ready-to-assay frozen cells)
T1 sequence (P30559 1-389): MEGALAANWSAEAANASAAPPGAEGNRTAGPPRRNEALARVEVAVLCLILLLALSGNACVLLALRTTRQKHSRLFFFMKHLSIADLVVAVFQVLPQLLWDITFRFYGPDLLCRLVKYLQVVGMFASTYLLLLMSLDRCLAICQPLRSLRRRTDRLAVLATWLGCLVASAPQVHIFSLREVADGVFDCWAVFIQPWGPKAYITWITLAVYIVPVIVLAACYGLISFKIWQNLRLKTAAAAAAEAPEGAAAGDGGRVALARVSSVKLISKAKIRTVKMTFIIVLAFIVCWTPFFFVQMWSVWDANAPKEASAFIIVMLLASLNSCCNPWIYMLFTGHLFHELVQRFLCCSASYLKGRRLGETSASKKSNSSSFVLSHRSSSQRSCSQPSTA
Description: This assay was performed in CHEM-1 cells expressing the human Oxytocin Receptor (hOTR) to determine the inhibitory effect of the compounds of the invention on the human Oxytocin receptor. Oxytocin evokes an increase in intracellular calcium in CHEM-1-hOTR cells which is measured in a fluorescence assay on the FLIPR^TETRA using calcium sensitive dyes. Test compounds were assessed for their ability to affect the magnitude of the response to oxytocin, with antagonists showing a concentration-dependent reduction in the oxytocin-mediated fluorescence.
CHEM-1-hOTR ready was used to assay frozen cells (Eurofins #HTS09ORTA) which are supplied with a proprietary Media Component.
Day 1 of the assay: Cells were thawed in a 37° C. water bath and diluted with the supplied Media Component to a final volume of 10 ml. The cell suspension was centrifuged at 1000 rpm for 3 min at room temperature and the supernatant was discarded. The cell pellet was resuspended in Media Component (10.5 ml) and the cells (25 μL) were dispensed into a poly-D-lysine coated black, clear bottomed, 384-well plate. The plates were incubated overnight at 37° C., 5% CO2.
Day 2: At the start of each assay day the potency of oxytocin was assessed and an EC80 concentration was determined for subsequent compound profiling. Assays were performed using a two-step addition protocol on the FLIPR^TETRA; first addition of 5 μl of control or test compound at 10× final in assay buffer with 15 min incubation at 37° C., 5% CO2 followed by 10 μl of oxytocin at 6× final concentration in assay buffer. Changes in fluorescence were monitored for 3 min after both additions on the FLIPR^TETRA using 470-495 nm excitation and 515-575 nm emission wavelengths. The assay buffer consisted of HBSS (+Ca/+Mg) supplemented with 20 mM HEPES, and for the preparation of the oxytocin agonist only, 0.1% w/v bovine serum albumin. The assay was initiated by the removal of growth media from the cells and replaced with 45 μl of Calcium-6 dye (Molecular Devices) prepared at 1× in assay buffer. Cells were loaded with dye for 60-90 min at 37° C., 5% CO2 before initiation of the FLIPR^TETRA protocol. […] For compound profiling, test compounds were first serially diluted in DMSO (10-point curve, 1:3 dilutions) then diluted 33.3-fold in assay buffer prior to addition to the dye loaded cells on the FLIPR^TETRA. At the end of the incubation period 10 μl of oxytocin in assay buffer containing 0.1% BSA was added at the previously determined EC80 concentration.
In-plate controls for the assay included a L-368,899 concentration-response curve as the reference OTR antagonist and an oxytocin concentration-response curve to confirm the reproducibility of the EC80 used for the compound challenge.

[2] = target: T2, human Arginine Vasopressin Receptor 1a (AVPR1a) (Homo sapiens, UniProt P37288); experiment: Vasopressin V1a receptor antagonist assay (FLIPR calcium, CHO-AVPR1a cells); format: cell-based
T2 construct: expressed in transfected cells; host or cells: CHO (CHO-AVPR1a, kept under G418 selection)
T2 sequence (P37288 whole entry): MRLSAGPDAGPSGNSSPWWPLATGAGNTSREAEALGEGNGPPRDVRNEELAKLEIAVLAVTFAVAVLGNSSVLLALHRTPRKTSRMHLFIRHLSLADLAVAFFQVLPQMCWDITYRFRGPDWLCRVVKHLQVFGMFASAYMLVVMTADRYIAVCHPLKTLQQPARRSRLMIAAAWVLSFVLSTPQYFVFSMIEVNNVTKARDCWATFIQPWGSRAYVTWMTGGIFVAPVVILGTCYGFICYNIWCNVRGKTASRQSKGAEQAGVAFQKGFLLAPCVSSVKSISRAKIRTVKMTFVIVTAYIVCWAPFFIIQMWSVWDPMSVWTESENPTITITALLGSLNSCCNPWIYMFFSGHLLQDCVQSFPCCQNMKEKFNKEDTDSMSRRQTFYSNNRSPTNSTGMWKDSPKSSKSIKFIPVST
Summary of the method: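 CHO cells expressing human AVPR1a were loaded with Calcium-6 dye and preincubated with compound for 15 min at 37° C. Cells were then challenged with AVP at its daily-determined EC80, and FLIPR fluorescence was read. Compounds were tested in duplicate as 10-point 1:3 dilutions from a top final concentration of 3 μM.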

IC50 [1] [nM] | IC50 [2] [nM] | Structure (SMILES)
≥ 1000 | < 100 | O=C(N1CC2(C1)CN(c1ccc(F)cn1)C2)N1CCC(O)c2cc(Cl)ccc21 (single isomer, unassigned) [13-1-A]
100 to 500 | < 100 | CC1COc2cc(F)ccc2N1C(=O)N1CC2(C1)CN(c1ccc(F)cn1)C2 (single isomer, unassigned) [12-1-B]
100 to 500 | < 100 | COc1ccnc(N2CC3(CN(C(=O)N4c5ccc(Cl)cc5OCC4C)C3)C2)c1 (single isomer, unassigned) [20-8-B]
≥ 1000 | < 100 | O=C(N1CC2(C1)CN(c1cnccn1)C2)N1CCC(O)c2cc(Cl)ccc21 (stereo not shown) [13-3]
– | < 100 | O=C(N1CC2(C1)CN(c1cccnn1)C2)N1CCOc2cc(Cl)c(F)cc21 [1-81]
– | < 100 | CC1COc2cc(F)ccc2N1C(=O)N1CC2(C1)CN(c1ncccn1)C2 (stereo not shown) [18-1, (7-fluoro-3-methyl-2,3-dihydro-4H-benzo[b][1,4]oxazin-4-yl)(6-(pyrimidin-2-yl)-2,6-diazaspiro[3.3]heptan-2-yl)methanone]
≥ 1000 | < 100 | O=C(N1CC2(C1)CN(c1ccc(F)cn1)C2)N1CCOCc2cc(Cl)ccc21 [8-4]
500 to 1000 | < 100 | O=C(N1CC2(C1)CN(c1ccccn1)C2)N1CCC(O)c2cc(Cl)ccc21 (single isomer, unassigned) [13-2-A]
500 to 1000 | < 100 | CC1CN(C(=O)N2CC3(C2)CN(c2ccc(F)cn2)C3)c2ccc(Cl)cc2O1 (stereo not shown) [9-3]
100 to 500 | < 100 | CC1COc2cc(F)c(F)cc2N1C(=O)N1CC2(C1)CN(c1ccc(F)cn1)C2 (stereo not shown) [19-5]
– | < 100 | CC1COc2cc(F)c(F)cc2N1C(=O)N1CC2(C1)CN(c1ccc(F)cn1)C2 (single isomer, unassigned) [19-5-B]
< 100 | < 100 | CC1COc2cc(Cl)ccc2N1C(=O)N1CC2(C1)CN(c1cc(C#N)ccn1)C2 (stereo not shown) [20-6]
– | < 100 | CC1COc2cc(Cl)ccc2N1C(=O)N1CC2(C1)CN(c1cccnc1)C2 (single isomer, unassigned) [20-1-B]
– | < 100 | O=C(N1CC2(C1)CN(c1ccc(F)cn1)C2)N1CCc2cc(Cl)ccc21 [8-11]
500 to 1000 | < 100 | COc1ccnc(N2CC3(CN(C(=O)N4c5ccc(Cl)cc5OCC4C)C3)C2)n1 (single isomer, unassigned) [20-9-B]
500 to 1000 | < 100 | O=C(N1CC2(C1)CN(c1ccccn1)C2)N1CCOCc2cc(Cl)ccc21 [8-12]
< 100 | < 100 | Cc1ccnc(N2CC3(CN(C(=O)N4c5ccc(Cl)cc5OCC4C)C3)C2)n1 (single isomer, unassigned) [20-12-B]
≥ 1000 | < 100 | CC1COc2cc(F)ccc2N1C(=O)N1CC2(C1)CN(c1noc3ccccc13)C2 (single isomer, unassigned) [4-3-B]
100 to 500 | < 100 | CC1COc2cc(F)ccc2N1C(=O)N1CC2(C1)CN(c1cc(C#N)ccn1)C2 (single isomer, unassigned) [20-3-B]
≥ 1000 | < 100 | CC1COc2cc(Cl)ccc2N1C(=O)N1CC2(C1)CN(c1noc3cccnc13)C2 (stereo not shown) [18-3]
– | < 100 | Cc1cccnc1N1CC2(CN(C(=O)N3CCOc4cc(Cl)ccc43)C2)C1 [1-5]
– | < 100 | CC1COc2cc(F)c(F)cc2N1C(=O)N1CC2(C1)CN(c1cccnn1)C2 (stereo not shown) [19-3]
– | < 100 | COc1ccc2c(c1)OCCN2C(=O)N1CC2(C1)CN(c1ccc(F)cn1)C2 [9-2]
100 to 500 | < 100 | CC1COc2cc(Cl)c(F)cc2N1C(=O)N1CC2(C1)CN(c1cccnn1)C2 (single isomer, unassigned) [19-4-A]

IC50 [1] [nM] | IC50 [2] [nM] | Structure (SMILES)
100 to 500 | < 100 | Cc1cncc(N2CC3(CN(C(=O)N4c5ccc(F)cc5OCC4C)C3)C2)n1 (single isomer, unassigned) [20-2-B]
– | < 100 | CC1COc2cc(F)c(F)cc2N1C(=O)N1CC2(C1)CN(c1ncccn1)C2 (stereo not shown) [19-1, (6,7-difluoro-3-methyl-2,3-dihydro-4H-benzo[b][1,4]oxazin-4-yl)(6-(pyrimidin-2-yl)-2,6-diazaspiro[3.3]heptan-2-yl)methanone]
– | < 100 | CC1COc2cc(F)c(F)cc2N1C(=O)N1CC2(C1)CN(c1cccnn1)C2 (single isomer, unassigned) [19-3-B]
500 to 1000 | < 100 | O=C(N1CC2(C1)CN(c1ccccn1)C2)N1CCC(O)c2cc(Cl)ccc21 (single isomer, unassigned) [13-2-B]
100 to 500 | < 100 | Cc1nccnc1N1CC2(CN(C(=O)N3c4ccc(Cl)cc4OCC3C)C2)C1 (stereo not shown) [20-10]
– | < 100 | O=C(N1CC2(C1)CN(c1ncccn1)C2)N1CCOc2cc(Cl)ccc21 [1-4]
– | < 100 | COc1ccnc(N2CC3(CN(C(=O)N4CCOc5cc(Cl)ccc54)C3)C2)c1 [1-15]
– | < 100 | O=C(N1CC2(C1)CN(c1cc(F)ccn1)C2)N1CCc2cc(Cl)ccc21 [1-79]
– | < 100 | CC1COc2cc(F)ccc2N1C(=O)N1CC2(C1)CN(c1noc3ccccc13)C2 (stereo not shown) [4-3]
– | < 100 | O=C(N1CC2(C1)CN(c1ccccn1)C2)N1CCc2cc(Cl)ccc21 [1-77]
– | < 100 | Cc1cnc(N2CC3(CN(C(=O)N4c5ccc(Cl)cc5OCC4C)C3)C2)nc1 (stereo not shown) [20-13]
– | < 100 | O=C(N1CC2(C1)CN(c1ncccc1F)C2)N1CCc2cc(Cl)ccc21 [1-76]
– | < 100 | Cc1nc(N2CC3(CN(C(=O)N4CCOc5cc(Cl)ccc54)C3)C2)ncc1F [6-1, (7-chloro-2,3-dihydro-4H-benzo[b][1,4]oxazin-4-yl)(6-(5-fluoro-4-methylpyrimidin-2-yl)-2,6-diazaspiro[3.3]heptan-2-yl)methanone]
– | < 100 | O=C(N1CC2(C1)CN(c1noc3ccccc13)C2)N1CCOc2cc(Cl)ccc21 [4-1, (6-(benzo[d]isoxazol-3-yl)-2,6-diazaspiro[3.3]heptan-2-yl)(7-chloro-2,3-dihydro-4H-benzo[b][1,4]oxazin-4-yl)methanone]
– | < 100 | O=C(N1CC2(C1)CN(c1ccc(F)cn1)C2)N1CCC(F)(F)c2cc(Cl)ccc21 [17-1, (6-chloro-4,4-difluoro-3,4-dihydroquinolin-1(2H)-yl)(6-(5-fluoropyridin-2-yl)-2,6-diazaspiro[3.3]heptan-2-yl)methanone]
– | ≥ 1000 | CC1COc2cc(Cl)ccc2N1C(=O)N1CC2(C1)CN(c1cccnn1)C2 (single isomer, unassigned) [9-1-A]
– | < 100 | CC1COc2cc(F)ccc2N1C(=O)N1CC2(C1)CN(c1ncc(F)cn1)C2 (single isomer, unassigned) [18-4-B]
– | < 100 | O=C(N1CC2(C1)CN(c1ccc(F)cn1)C2)N1CCOc2cc(F)c(F)cc21 [9-6]
– | 500 to 1000 | Cc1cncc(N2CC3(CN(C(=O)N4c5ccc(F)cc5OCC4C)C3)C2)n1 (single isomer, unassigned) [20-2-A]
– | < 100 | O=C(N1CC2(C1)CN(c1ncc(F)cn1)C2)N1CCOc2cc(Cl)ccc21 [4-2]
– | < 100 | O=C(N1CC2(C1)CN(c1cnccn1)C2)N1CCOc2cc(Cl)ccc21 [8-3]
– | < 100 | O=C(N1CC2(C1)CN(c1cnccn1)C2)N1CCc2cc(Cl)ccc21 [8-14]
– | < 100 | O=C(N1CC2(C1)CN(c1ccccn1)C2)N1CCOc2cc(Cl)ccc21 [8-2]
– | < 100 | Cc1ccnc(N2CC3(CN(C(=O)N4CCOc5cc(Cl)ccc54)C3)C2)c1 [1-14]
